US20250186600A1, “EXCIPIENT COMPOUNDS FOR PROTEIN FORMULATIONS” (Comera Life Sciences, Inc., priority 2020, published 2025)
Counter-ions that a name gives are not always drawn.

Assays:
[1] = test system: proteins described in Table 50; assay: DLS diffusion interaction parameter kD (Example 49); format: physicochemical; settings: mixed 1:1 with protein solution, 20 mM His HCl pH 6, 25° C.
Method: The resulting solution was titrated to pH 6 by dropwise addition of 1 M hydrochloric acid. After pH adjustment, the buffer was diluted to a final volume of 1 L in a volumetric flask with Type 1 ultrapure water. All excipients used in this Example, listed in Table 50 below, were of the highest purity, and were obtained from Sigma Aldrich (St. Louis, MO) or Cayman Chemical (Ann Arbor, MI).
A series of six test protein solutions were prepared using the proteins described in Table 50, ranging in protein concentration from about 4 mg/mL to about 20 mg/mL, all in 20 mM His HCl buffer at pH 6. […] A second centrifuge step was completed to remove air bubbles. The diffusion interaction parameter (kD) of these protein-excipient formulations was measured by dynamic light scattering (DLS) in dilute solution as a way of probing the impact of excipients on protein-protein interactions (PPI). […] A more negative kD indicated a stronger net attractive PPI and a more positive kD indicated a stronger net repulsive PPI.

[2] = Caffeine solubility with co-solutes during refrigerated storage (Example 61); format: physicochemical; set-up: key: (PPT)—precipitate observed; (—)—clear solution observed; settings: 50 mM co-solute, 25 mM histidine pH 6, stored 2 to 5° C.
Method: The resulting microplates were then sealed with microplate tape and stored in a refrigerator with the temperature maintained in the range of 2 to 5° C. Over the course of storage, the microplates were visually observed for evidence of precipitate in the well.

ustekinumab = assay: Stabilization at low pH, Sypro orange fluorescence (Example 45); settings: excipient 5 mg/mL, ustekinumab 1 mg/mL, glycine acidification buffer pH 2.6, Sypro orange fluorescence
[3] = excipient stock concentration 200 mM
[4] = excipient stock concentration 100 mM

NC(=O)CN1CCCC1=O [Piracetam]
Omalizumab kD [1, 3]: -23.6 mL/g
Ustekinumab kD [1, 3]: 27.3 mL/g

N[C@@H]1CON=C1O [Cycloserine]
Omalizumab kD [1, 3]: -14.7 mL/g
Ustekinumab kD [1, 3]: -13.6 mL/g

OCc1ccccc1 [Benzyl alcohol]
Day 1 (visual observation for precipitate) ([2]; caffeine 7.5 mg/mL): —
Day 7 (visual observation for precipitate) ([2]; caffeine 7.5 mg/mL): —
Day 18 (visual observation for precipitate) ([2]; caffeine 7.5 mg/mL): —
Day 27 (visual observation for precipitate) ([2]; caffeine 7.5 mg/mL): —
Day 56 (visual observation for precipitate) ([2]; caffeine 7.5 mg/mL): —
Day 1 (visual observation for precipitate) ([2]; caffeine 10 mg/mL): —
Day 7 (visual observation for precipitate) ([2]; caffeine 10 mg/mL): —
Day 18 (visual observation for precipitate) ([2]; caffeine 10 mg/mL): —
Day 27 (visual observation for precipitate) ([2]; caffeine 10 mg/mL): —
Day 56 (visual observation for precipitate) ([2]; caffeine 10 mg/mL): —
Day 1 (visual observation for precipitate) ([2]; caffeine 12.5 mg/mL): —
Day 7 (visual observation for precipitate) ([2]; caffeine 12.5 mg/mL): —
Day 18 (visual observation for precipitate) ([2]; caffeine 12.5 mg/mL): —
Day 27 (visual observation for precipitate) ([2]; caffeine 12.5 mg/mL): —
Day 56 (visual observation for precipitate) ([2]; caffeine 12.5 mg/mL): —
Day 1 (visual observation for precipitate) ([2]; caffeine 15 mg/mL): —
Day 7 (visual observation for precipitate) ([2]; caffeine 15 mg/mL): —
Day 18 (visual observation for precipitate) ([2]; caffeine 15 mg/mL): —
Day 27 (visual observation for precipitate) ([2]; caffeine 15 mg/mL): PPT
Day 56 (visual observation for precipitate) ([2]; caffeine 15 mg/mL): PPT
Day 1 (visual observation for precipitate) ([2]; caffeine 20 mg/mL): —
Day 7 (visual observation for precipitate) ([2]; caffeine 20 mg/mL): PPT
Day 18 (visual observation for precipitate) ([2]; caffeine 20 mg/mL): PPT
Day 27 (visual observation for precipitate) ([2]; caffeine 20 mg/mL): PPT
Day 56 (visual observation for precipitate) ([2]; caffeine 20 mg/mL): PPT

CC(=O)CC(=O)OCc1ccccc1 [Benzyl acetonacetate]
Omalizumab kD [1, 4]: -27.0 mL/g
Ustekinumab kD [1, 4]: 26.6 mL/g

Cc1ncc(CO)c(CO)c1O.Cl [pyridoxine HCl]
Omalizumab kD [1, 3]: -4.3 mL/g
Ustekinumab kD [1, 3]: -0.5 mL/g

CCN(CC)CCCC(C)Nc1ccnc2cc(Cl)ccc12 (centres unmarked) [Chloroquine Phosphate]
Omalizumab kD [1, 4]: -26.4 mL/g
Ustekinumab kD [1, 4]: 15.2 mL/g

CN1CCCC1=O [N-Methyl-2-pyrrolidone]
Day 1 (visual observation for precipitate) ([2]; caffeine 7.5 mg/mL): —
Day 7 (visual observation for precipitate) ([2]; caffeine 7.5 mg/mL): —
Day 18 (visual observation for precipitate) ([2]; caffeine 7.5 mg/mL): —
Day 27 (visual observation for precipitate) ([2]; caffeine 7.5 mg/mL): —
Day 56 (visual observation for precipitate) ([2]; caffeine 7.5 mg/mL): —
Day 1 (visual observation for precipitate) ([2]; caffeine 10 mg/mL): —
Day 7 (visual observation for precipitate) ([2]; caffeine 10 mg/mL): —
Day 18 (visual observation for precipitate) ([2]; caffeine 10 mg/mL): —
Day 27 (visual observation for precipitate) ([2]; caffeine 10 mg/mL): —
Day 56 (visual observation for precipitate) ([2]; caffeine 10 mg/mL): —
Day 1 (visual observation for precipitate) ([2]; caffeine 12.5 mg/mL): —
Day 7 (visual observation for precipitate) ([2]; caffeine 12.5 mg/mL): —
Day 18 (visual observation for precipitate) ([2]; caffeine 12.5 mg/mL): —
Day 27 (visual observation for precipitate) ([2]; caffeine 12.5 mg/mL): —
Day 56 (visual observation for precipitate) ([2]; caffeine 12.5 mg/mL): PPT
Day 1 (visual observation for precipitate) ([2]; caffeine 15 mg/mL): —
Day 7 (visual observation for precipitate) ([2]; caffeine 15 mg/mL): —
Day 18 (visual observation for precipitate) ([2]; caffeine 15 mg/mL): PPT
Day 27 (visual observation for precipitate) ([2]; caffeine 15 mg/mL): PPT
Day 56 (visual observation for precipitate) ([2]; caffeine 15 mg/mL): PPT
Day 1 (visual observation for precipitate) ([2]; caffeine 20 mg/mL): PPT
Day 7 (visual observation for precipitate) ([2]; caffeine 20 mg/mL): PPT
Day 18 (visual observation for precipitate) ([2]; caffeine 20 mg/mL): PPT
Day 27 (visual observation for precipitate) ([2]; caffeine 20 mg/mL): PPT
Day 56 (visual observation for precipitate) ([2]; caffeine 20 mg/mL): PPT

O=C(O)CN(CCN(CC(=O)O)CC(=O)O)CCN(CC(=O)O)CC(=O)O [Diethylenetriaminepentaacetic acid]
% change in stability (ustekinumab): 11.8%

Pyridyl ethylamine
% change in stability (ustekinumab): 85.6%

O=C([O-])c1ccccc1.[Na+] [Sodium benzoate]
Day 1 (visual observation for precipitate) ([2]; caffeine 7.5 mg/mL): —
Day 7 (visual observation for precipitate) ([2]; caffeine 7.5 mg/mL): —
Day 18 (visual observation for precipitate) ([2]; caffeine 7.5 mg/mL): —
Day 27 (visual observation for precipitate) ([2]; caffeine 7.5 mg/mL): —
Day 56 (visual observation for precipitate) ([2]; caffeine 7.5 mg/mL): —
Day 1 (visual observation for precipitate) ([2]; caffeine 10 mg/mL): —
Day 7 (visual observation for precipitate) ([2]; caffeine 10 mg/mL): —
Day 18 (visual observation for precipitate) ([2]; caffeine 10 mg/mL): —
Day 27 (visual observation for precipitate) ([2]; caffeine 10 mg/mL): —
Day 56 (visual observation for precipitate) ([2]; caffeine 10 mg/mL): —
Day 1 (visual observation for precipitate) ([2]; caffeine 12.5 mg/mL): —
Day 7 (visual observation for precipitate) ([2]; caffeine 12.5 mg/mL): —
Day 18 (visual observation for precipitate) ([2]; caffeine 12.5 mg/mL): —
Day 27 (visual observation for precipitate) ([2]; caffeine 12.5 mg/mL): —
Day 56 (visual observation for precipitate) ([2]; caffeine 12.5 mg/mL): —
Day 1 (visual observation for precipitate) ([2]; caffeine 15 mg/mL): —
Day 7 (visual observation for precipitate) ([2]; caffeine 15 mg/mL): —
Day 18 (visual observation for precipitate) ([2]; caffeine 15 mg/mL): —
Day 27 (visual observation for precipitate) ([2]; caffeine 15 mg/mL): —
Day 56 (visual observation for precipitate) ([2]; caffeine 15 mg/mL): PPT
Day 1 (visual observation for precipitate) ([2]; caffeine 20 mg/mL): —
Day 7 (visual observation for precipitate) ([2]; caffeine 20 mg/mL): —
Day 18 (visual observation for precipitate) ([2]; caffeine 20 mg/mL): PPT
Day 27 (visual observation for precipitate) ([2]; caffeine 20 mg/mL): PPT
Day 56 (visual observation for precipitate) ([2]; caffeine 20 mg/mL): PPT

C1COCCOCCOCCOCCO1 [15-crown-5 ether]
Omalizumab kD [1, 3]: -25.0 mL/g
Ustekinumab kD [1, 3]: 26.7 mL/g

OC[C@@H](O)[C@@H](O)CO [Erythritol]
% change in stability (ustekinumab): 1.8%

Nc1nc(=O)n([C@@H]2CS[C@H](CO)O2)cc1F [Emtricitabine]
% change in stability (ustekinumab): 2.9%

Cc1ncc[nH]1 [Excipient 2-Methylimidazole, 2-Methylimidazole]
Omalizumab kD [1, 3]: -24.5 mL/g
Ustekinumab kD [1, 3]: -0.5 mL/g

N=C(N)NC(=O)Cc1c(Cl)cccc1Cl [Guanfacine HCl]
Ustekinumab kD [1, 4]: 36.1 mL/g

Nc1ccc(C(=O)O)cc1 [4-Aminobenzoic acid]
Omalizumab kD [1, 3]: -17.4 mL/g
Ustekinumab kD [1, 3]: 1.5 mL/g

NC(=NO)c1ccccc1 [Benzamide oxime]
% change in stability (ustekinumab): 70.6%

O=C(O)C1=CCNCC1 [Isoguvacine HCl]
Omalizumab kD [1, 3]: -7.9 mL/g
Ustekinumab kD [1, 3]: 1.0 mL/g

Cl.NCC(O)c1ccc(O)c(O)c1 (racemic) [DL-Norepinephrine HCl]
Omalizumab kD [1, 4]: -19.8 mL/g
Ustekinumab kD [1, 4]: 1.5 mL/g

Nn1nnc2ccccc21 [Excipient 1-aminobenzotriazole, 1-aminobenzotriazole]
Omalizumab kD [1, 3]: -24.1 mL/g
Ustekinumab kD [1, 3]: 24.0 mL/g

C#CCN[C@@H]1CCc2ccccc21 [rasagiline mesylate]
Omalizumab kD [1, 4]: -24.1 mL/g
Ustekinumab kD [1, 4]: 26.5 mL/g

O=c1cc(CO)occ1O [Kojic Acid]
Omalizumab kD [1, 3]: -29.1 mL/g
Ustekinumab kD [1, 3]: 33.2 mL/g

Cn1cnc(CC(=O)O)c1 [1-methyl-4-imidazoleacetic acid]
Omalizumab kD [1, 3]: -21.8 mL/g
Ustekinumab kD [1, 3]: 47.4 mL/g

CN(C)CCN(C)C.Cl [Tetramethylethylenediamine HCl]
Omalizumab kD [1, 3]: -14.6 mL/g
Ustekinumab kD [1, 3]: 0.1 mL/g

COc1cc(C=CC(=O)O)ccc1O [4-hydroxy-3-methoxycinnamic acid]
Omalizumab kD [1, 3]: -26.6 mL/g
Ustekinumab kD [1, 3]: 21.0 mL/g

O=S(=O)([O-])CCC[n+]1ccccc1 [3-(1-Pyridinio)-1-propanesulfonate]
Omalizumab kD [1, 3]: -30.2 mL/g
Ustekinumab kD [1, 3]: 26.7 mL/g

COc1cc(CC(=O)O)ccc1O [Homovanillic acid]
Omalizumab kD [1, 3]: -21.2 mL/g
Ustekinumab kD [1, 3]: 5.5 mL/g

O.O.O.O.O.O.O.O.O.O.[Na+].[Na+].[O-]B1OB2OB([O-])OB(O1)O2 [Sodium borate]
Omalizumab kD [1, 3]: -28.8 mL/g
Ustekinumab kD [1, 3]: 17.9 mL/g
